According to paper PMC6272127, “Synthesis, Antiproliferative Activity and Molecular Properties Predictions of Galloyl Derivatives” (Molecules, 2015):
≈ marks a conversion by molar mass, not a printed value.

Experiments:
HT-29 (colon) = assay: Anticancer assay in vitro (sulforhodamine B), HT-29; format: cell-based; settings: for GI50: SRB; for TGI: HT-29, total growth inhibition, 48 h
Protocol: (§1) The experiments were performed in triplicate.

MCF-7 (breast) = assay: Anticancer assay in vitro (sulforhodamine B), MCF-7; format: cell-based; settings: for GI50: MCF-7, 48 h, SRB; for TGI: MCF-7, total growth inhibition
Protocol: as §1

[1] = system: ten human tumor cell lines; assay: Anticancer assay in vitro (sulforhodamine B), statements over the panel of cell lines; format: cell-based; settings: for cytotoxic efficacy: OVCAR-3 and K-562 cell lines
Protocol: as §1

HaCaT (keratinocytes) = assay: Anticancer assay in vitro (sulforhodamine B), HaCaT; format: cell-based; settings: 48 h; for GI50: Homo sapiens, SRB; for TGI: total growth inhibition
Protocol: as §1

[2] = system: NCI-ADR/RES (breast expressing the multiple drug resistance phenotype); assay: cells; format: cell-based; settings: NCI/ADR-RES, 48 h; for GI50: SRB; for TGI: total growth inhibition
Protocol: as §1

PC-3 (prostate) = assay: cells; format: cell-based; settings: for GI50: PC-3, 48 h, SRB; for TGI: PC-3, total growth inhibition
Protocol: as §1

[3] = system: NCI-H460 (lung, non-small cells); assay: cells; format: cell-based; settings: for GI50: SRB; for TGI: NCI-H460, total growth inhibition, 48 h
Protocol: as §1

K-562 (leukemia) = assay: cells; format: cell-based; settings: for GI50: K562, K-562, 48 h, SRB
Protocol: as §1

786-0 (renal) = assay: cells; format: cell-based; settings: for GI50 / CC50: Homo sapiens, 786-0, 48 h; for GI50: SRB; for TGI: 786-0, total growth inhibition, 48 h; for CC50: read-out: LC50
Protocol: as §1

U251 (glioma, CNS) = assay: cells; settings: for TGI: U251, total growth inhibition, 48 h
Protocol: The GI50 values (growth inhibitory activity) (Table 1) refer to the drug concentration that produces a 50% reduction of cellular growth compared with the untreated control cells. The TGI (cytostatic activity) and LC50 (cytotoxic activity) values (Table 2) refer to the drug concentration required for total growth inhibition and killing 50% of the cells, respectively.
The synthesized compounds were assessed in the following ten human tumor cell lines from various tissues kindly provide by the National Cancer Institute (Frederick, MD, USA): U251 (glioma, CNS), MCF-7 (breast), NCI-ADR/RES (breast expressing the multiple drug resistance phenotype), 786-0 (renal), NCI-H460 (lung, non-small cells), PC-3 (prostate), OVCAR-3 (ovarian), HT-29 (colon), K-562 (leukemia) and HaCaT (keratinocytes). Stock cultures were grown in media containing 5 mL of RPMI 1640 (Gibco BRL) supplemented with 5% fetal bovine serum. Gentamicin ([…]) was added to the experimental cultures. Cells in 96-well plates (100 µL cells/well) were exposed to sample concentrations in DMSO/RPMI (0.25, 2.5, 25, and 250 µg/mL) at 37 °C and 5% CO2 for 48 h. […] Next, cells were fixed with 50% trichloroacetic acid, and cell proliferation was determined by spectrophotometric quantification (540 nm) of cellular protein content employing the sulforhodamine B assay. Doxorubicin (0.025–25 µg/mL) was used as a positive control. Three measurements were obtained: first at time point zero (T0, at the beginning of incubation) and then 48 h post-incubation for both the compound-free (C) and tested (T) cells. Cell proliferation was determined using the equation 100 × [(T − T0)/C − T0]. A cytostatic effect was observed when T ≥ T0, while a cytocidal effect occurred when T < T0. The experiments were performed in triplicate.

OVCAR-3 (ovarian) = assay: Anticancer assay in vitro (sulforhodamine B), OVCAR-3; format: cell-based; settings: for GI50: SRB; for TGI: OVCAR-3, total growth inhibition, 48 h
Protocol: as §1

[4] = Anticancer assay in vitro (sulforhodamine B), HaCaT; format: cell-based; settings: human, HaCaT keratinocytes, killing 50% of cells, read-out: LC50
Protocol: as §1

[5] = K-562, total growth inhibition, 48 h

Structure (SMILES) | GI50 (HT-29 (colon); Homo sapiens, HT-29, 48 h) [µM] | GI50 (MCF-7 (breast); Homo sapiens, MCF7) [µM] | cytotoxic efficacy [1] | GI50 (HaCaT (keratinocytes)) [µM] | GI50 ([2]; Homo sapiens) [µM] | TGI [2] [µg/mL] | GI50 (PC-3 (prostate); Homo sapiens) [µM] | GI50 ([3]; Homo sapiens, NCI-H460, 48 h) [µM] | GI50 (K-562 (leukemia); Homo sapiens) [µM] | TGI (K-562 (leukemia); [5]) [µg/mL] | GI50 (786-0 (renal)) [µM] | GI50 (U251 (glioma, CNS); Homo sapiens, U-251, 48 h) [µM] | TGI (U251 (glioma, CNS)) [µg/mL] | GI50 (OVCAR-3 (ovarian); Homo sapiens, OVCAR-3, 48 h) [µM] | TGI (PC-3 (prostate); 48 h) [µg/mL] | TGI (HT-29 (colon)) [µg/mL] | TGI (MCF-7 (breast); 48 h) [µg/mL] | TGI (HaCaT (keratinocytes)) [µg/mL] | TGI (OVCAR-3 (ovarian)) [µg/mL] | TGI [3] [µg/mL] | other results
COc1ccc(/C=N/NC(=O)c2cc(O)c(O)c(O)c2)cc1 [Compound 7, N'-(4-Methoxybenzylidene)galloyl hydrazide] | 25.1 | 15.7 | did not demonstrate cytotoxic efficacy | 18.1 | 11.3 | 66.56 (≈ 220 µM) | 19.6 | 41.1 | 8.93 | 41.76 | 18.9 | 9.14 | 64.22 (≈ 212 µM) | 5.98 |  |  |  |  |  |  | 
O=C(N/N=C/c1ccc([N+](=O)[O-])cc1)c1cc(O)c(O)c(O)c1 [Compound 6, N'-(4-Nitrobenzylidene)galloyl hydrazide] |  |  | did not demonstrate cytotoxic efficacy | 31.6 | 8.46 |  | 14 |  |  |  | 7.6 | 5.12 |  | 5.91 | 84.67 (≈ 267 µM) |  |  |  |  |  | 
CN(C)c1ccc(/C=N/NC(=O)c2cc(O)c(O)c(O)c2)cc1 [Compound 5, N'-(4-Dimethylaminobenzylidene)galloyl hydrazide] | 16.2 | 8.61 |  | 4.05 | 4.68 | 83.07 (≈ 263 µM) |  | 21.6 | 2.05 | 8.98 | 8.93 | 24.1 |  | 2.93 |  | 48.50 (≈ 154 µM) | 20.26 (≈ 64.3 µM) | 18.41 (≈ 58.4 µM) | 41.52 (≈ 132 µM) |  | CC50 (MCF-7 (breast); Homo sapiens, MCF7, MCF-7, killing 50% of cells, 48 h, read-out: LC50 (the source's name)): 47.9 µg/mL (≈ 152 µM); CC50 at 48 h [4]: 55.3 µg/mL (≈ 175 µM); TGI (K-562 (leukemia); K-562, as printed in the text): 8.98 µM
COC(=O)c1cc(O)c(O)c(O)c1 [Compound 2, Methyl gallate] | 0.49 | 0.16 |  | 0.26 | 0.12 | 3.62 (≈ 19.7 µM) | 0.57 | 0.13 | 0.31 | 5.67 | 0.65 | 0.16 | 4.10 (≈ 22.3 µM) |  | 13.10 (≈ 71.1 µM) | 8.52 (≈ 46.3 µM) | 5.12 (≈ 27.8 µM) | 16.74 (≈ 90.9 µM) | 1.59 (≈ 8.63 µM) | 7.97 (≈ 43.3 µM) | CC50 (HT-29 (colon); Homo sapiens, HT-29, 48 h, read-out: LC50): 30.6 µg/mL (≈ 166 µM); TGI values over the cell lines tested ([1]; range over all human tumor cell lines): 1.59 to 16.74 µM; CC50 ([2]; Homo sapiens, read-out: LC50): 30.3 µg/mL (≈ 164 µM); CC50 ([3]; Homo sapiens, NCI-H460, 48 h, read-out: LC50): 34.9 µg/mL (≈ 190 µM); TGI (786-0 (renal)): 8.62 µg/mL (≈ 46.8 µM); CC50 (786-0 (renal)): 31.4 µg/mL (≈ 170 µM); CC50 (U251 (glioma, CNS); Homo sapiens, U-251, 48 h, read-out: LC50): 29.2 µg/mL (≈ 159 µM); CC50 (OVCAR-3 (ovarian); Homo sapiens, OVCAR-3, 48 h, read-out: LC50): 33.7 µg/mL (≈ 183 µM)
COc1cccc2c1C(=O)c1c(O)c3c(c(O)c1C2=O)C[C@@](O)(C(=O)CO)C[C@@H]3O[C@H]1C[C@H](N)[C@H](O)[C@H](C)O1 [Dox, Doxorubicin, reference compound] | 0.09 | 0.01 |  | 0.01 | 0.2 | 22.42 (≈ 41.2 µM) | 0.18 | 0.01 | 0.03 | 2.60 | 0.04 | 0.02 | 2.68 (≈ 4.93 µM) | 0.02 | 1.03 (≈ 1.9 µM) | 26.03 (≈ 47.9 µM) | 2.52 (≈ 4.64 µM) | 0.77 (≈ 1.42 µM) | 1.47 (≈ 2.7 µM) | 3.73 (≈ 6.86 µM) | CC50 (PC-3 (prostate); Homo sapiens, 48 h, read-out: LC50): 7.95 µg/mL (≈ 14.6 µM); CC50 (K-562 (leukemia); Homo sapiens, K562, 48 h, read-out: LC50): 20.1 µg/mL (≈ 37 µM); TGI (786-0 (renal)): 0.51 µg/mL (≈ 0.938 µM); CC50 (786-0 (renal)): 17.8 µg/mL (≈ 32.8 µM)
